Source: PMC8147781, “Discovery of Pyrrolidine-2,3-diones as Novel Inhibitors of P. aeruginosa PBP3” (Antibiotics, 2021)
≈ marks a conversion by molar mass, not a printed value.

Legend:
[1] = biological target: T1, PBP3 of P. aeruginosa (PaPBP3) (Pseudomonas aeruginosa, UniProt G3XD46); assay: S2dfluo fluorescence transpeptidase assay; type: biochemical; details: for IC50: 300 nM PaPBP3, 30 min preincubation, 37 °C, read-out: IC50 Determination with PaPBP3, S2dfluo Assay; for inhibition at 100 µM: read-out: PBP3 Inhibition at 100 µM (%)
T1 construct: P. aeruginosa PBP3 (amino acids 40 to 563); His-tag; made in house; host or cells: E. coli BL21 (DE3) Rosetta, plasmid pET41_PBP-3
Description: The assays were carried out in the presence of 5% DMSO and 0.01% Triton X100 to avoid the formation of colloidal structures and adsorption of protein and/or compounds to surfaces. The Z’-factor determined for the assay was 0.73 ± 0.28, indicating the suitability and robustness of the assay for high throughput screening (HTS) (Figure 1B,C).
The activity of soluble ^PaPBP3 (300 nM) was measured in the presence of 0.8 mM S2d, 1 mM D-alanine and 0.5 mM mBBr for 25 min by monitoring the increase in the fluorescence intensity of mBBr at Ex/Em: 394/490 nm using an Infinite M1000 microplate reader (Tecan, Männedorf, Switzerland). To test the effect of inhibitors, 100 µM or 0.8 to 100 µM of compounds diluted in 96% DMSO were incubated for 30 min and 450 rpm with 300 nM soluble PBP3. The incubation period was set to improve the binding of non-covalent inhibitors and 0.01% Triton X100 (Sigma-Aldrich, Taufkirchen, Germany) was added to prevent aggregation of compounds. The enzyme reaction was started by adding a substrate mix of 0.8 mM S2d and […]. The enzyme, compound and substrate mix were mixed 1:1, pipetted with a Liquidator 96 (Melter Toledo, Gießen, Germany) and the fluorescence intensity was directly monitored with an Infinite M1000 microplate reader (Tecan) at Ex/Em: 394/490 nm. The assay was performed in black, flat-bottom 96-well microplates (Greiner Bio-One, Kremsmünster, Austria) at 37 °C in Sorensen Phosphate Buffer (57 mM Na2HPO4 and 10 mM KH2PO4, pH 7.5 + 0.01% Triton X-100). The velocity of the PBP3 reaction was calculated in the presence of each concentration of compound and the velocity values were used to estimate IC50 by sigmoidal nonlinear regression, using Prism v.9 software (San Diego, CA, USA) and the velocity of the reaction at each concentration.

[2] = biological target: T1, PBP3 of P. aeruginosa (PaPBP3); assay: FP-Bocillin FL competition assay; type: binding; details: 30 min preincubation before Bocillin FL, 37 °C; read-out: IC50 Determination with PaPBP3, FP-Bocillin FL Assay
Description: Bocillin FL is a fluorescent penicillin V derivate used as a competitor for PBP inhibitors.
Fluorescence polarisation (FP) experiments were carried out as described before. To determine the binding of Bocillin FL to PBP, 200 nM of ^PaPBP3 was incubated for 30 min with 100 nM of Bocillin FL (Thermo Fisher Scientific, Waltham, MA, USA). The fluorescence polarisation signal of free Bocillin FL was monitored in a Pherastar microplate reader (BMG Labtech, Ortenberg, Germany) in the polarisation mode with Ex/Em: 485/520 nm excitation and emission filters. Millipolarisation (mP) units were calculated using the MARS data analysis software v30.40.R2 (BMG Labtech, Ortenberg, Germany). All the experiments were done in Sorensen buffer at 37 °C using flat-bottom, black 96-well plates. […] Bocillin FL was diluted in Sorensen buffer and added to the reaction and directly measured for 30 min at 37 °C. The FP was continuously measured in the presence and absence of compound and enzyme. […] The estimated IC50 values were established by sigmoidal nonlinear regression, using Prims v.8 software.

[3] = tested on: H9, cutaneous T lymphocyte cell line; assay: Cytotoxicity assay (PrestoBlue), H9; details: CC50, 72 h
Description: (§1) We finally tested the cytotoxicity of the compounds against four eukaryotic cell lines (Table 2 and Table S5), NRK-52E, an epithelial kidney cell line of Rattus norvegicus; Hep G2, an human epithelial liver cell line; and two suspension cell lines: CCRF-CEM, a T lymphoblast; and H9, a cutaneous T lymphocyte cell line.
(§2) Cell lines stored at −120 °C were thawed to 37 °C and resuspended in 10 mL of medium pre-warmed to 37 °C. Cells were pelleted at 300× g for 10 min, and then resuspended in fresh medium, seeded in a T-75 culture flask, and placed in a CO2 incubator (37 °C with 5% CO2 tension). Once the cells reached approximately 70–80% confluency, they were then passaged regularly. The adherent cell lines NRK52E, HepG2 and Huh 7 were washed once with 10 mL DPBS and detached with Trypsin-EDTA for 5 to 7 min and resuspended in 15 mL of the appropriate medium. The suspension cell line CCRF-CEM were diluted and resuspended in fresh RPMI 1640 PAN medium. To calculate the cell density, the cell resuspensions were diluted 1:6 with DPBS. Equal volumes of cell suspension and Trypan Blue were mixed and gently loaded into a haemocytometer (INCYTO, 31056 Republic of Korea). In each experiment, cell concentrations were adjusted to reach a concentration of 2.5 × 10^3 cell/well for NRK52E, 5 × 10^3 cell/well for HepG2, 6.2 × 10^4 cell/well for CCRF-CEM and 3 × 10^3 for H9. The cells were incubated with decreasing concentration of compounds (1 µL in 96% DMSO) for 72 h at 37 °C with 5% CO2 tension. Cycloheximide, a cytotoxic compound that interferes with the translocation step in eukaryotic protein synthesis was used as a control for the experiments. The assay was carried out in flat-bottom, transparent 96-well plates. Cell viability was determined using the PrestoBlue reagent (Thermo Fisher Scientific, Waltham, MA, USA) according to the manufacture’s protocol. First, 10× PrestoBlue was added to each well to obtain a 1× solution, and incubated at 37 °C for 45 min. Then, fluorescence was measured at Ex/Em: 550/595 nm using a ClarioStar microplate reader (BMG Labtech). Cytotoxicity was determined as the percentage of the difference in absorbance of the untreated sample to the treated sample. CC50 was calculated using the values obtained in each concentration using the sigmoidal dose-response by Prism v.8. The media used in each cell line is detailed in Table S6.

[4] = tested on: Hep G2, epithelial liver cell line; assay: Cytotoxicity assay (PrestoBlue), HepG2; details: CC50, 72 h
Description: as §1, §2

E. coli Neumann = assay: MIC broth microdilution, E. coli; type: cell-based; details: Escherichia coli; Table S3; read-out: MIC (µM) E. coli Neumann
Description: (§3) MIC determination was performed via standard broth microdilution according to the Clinical & Laboratory Standards institute guidelines. Overnight colonies grown on BD-Columbia agar with 5% Sheep Blood (Becton Dickinson, Franklin Lakes, NJ, USA), were diluted in Mueller Hinton Broth 2 cation adjusted (MH+) medium (Thermo Fisher Scientific) to a concentration of 5 × 10^5 CFU/mL. Serial dilutions (1:2) of test compounds were incubated at 37 °C with 5 × 10^4 bacteria in a final volume of 100 μL. Sterile and growth controls in the presence of 1% DMSO and PMBN if the case, and the positive controls, aztreonam (AZT) and tigecycline (TIG) were included in the experiments (Table S4). The MICs were determined visually after 18 h at 37 °C and confirmed by the addition of 10% PrestoBlue (ThermoFisher Scientific) reagent according to the manufacture’s protocol. The fluorescence signal of PrestoBlue reagent was measured at Ex/Em: 550/595 nm after 30 min incubation at 37 °C using at a ClarioStar microplate reader (BMG Labtech). PrestoBlue reduction occurs in the presence of living cells and consequently turns red in colour and is highly fluorescent.

B. subtilis 168 = assay: MIC broth microdilution, B. subtilis; type: cell-based; details: Bacillus subtilis, 168; Table S3
Description: as §3

[5] = tested on: K. pneumoniae clinical isolate; assay: MIC broth microdilution, K. pneumoniae; type: cell-based; details: Klebsiella pneumoniae; Table S3
Description: as §3

A. baumannii ATCC15308 = assay: MIC broth microdilution, A. baumannii; type: cell-based; details: 10 µg/mL PMBN
Description: as §3

S. pneumoniae = assay: MIC broth microdilution, S. pneumoniae; type: cell-based; details: Streptococcus pneumoniae; Table S3; read-out: MIC (µM) S. pneumoniae
Description: as §3

S. aureus 133 = assay: MIC broth microdilution, S. aureus; type: cell-based; details: Staphylococcus aureus, 133; Table S3
Description: as §3

[6] = tested on: NRK-52E, epithelial kidney cell line; assay: Cytotoxicity assay (PrestoBlue), NRK52E; details: CC50, 72 h
Description: as §1, §2

[7] = tested on: T-lymphoblast CCRF-CEM cell line; assay: Cytotoxicity assay (PrestoBlue), CCRF-CEM; details: CC50, 72 h
Description: as §1, §2

T1 sequence (G3XD46 40-563): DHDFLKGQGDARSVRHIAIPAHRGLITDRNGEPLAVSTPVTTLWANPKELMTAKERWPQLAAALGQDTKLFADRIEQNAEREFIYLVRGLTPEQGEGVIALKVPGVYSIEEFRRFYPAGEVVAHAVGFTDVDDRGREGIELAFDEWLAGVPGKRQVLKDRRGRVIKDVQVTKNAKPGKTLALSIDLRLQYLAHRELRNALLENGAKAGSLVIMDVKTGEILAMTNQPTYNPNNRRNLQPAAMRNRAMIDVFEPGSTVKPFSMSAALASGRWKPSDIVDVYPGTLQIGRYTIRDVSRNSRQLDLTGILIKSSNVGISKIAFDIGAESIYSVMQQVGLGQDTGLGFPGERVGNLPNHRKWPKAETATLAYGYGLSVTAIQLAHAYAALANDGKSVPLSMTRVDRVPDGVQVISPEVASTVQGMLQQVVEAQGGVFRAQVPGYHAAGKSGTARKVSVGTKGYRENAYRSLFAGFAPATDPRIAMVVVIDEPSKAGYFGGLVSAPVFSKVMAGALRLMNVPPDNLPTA

Compound | IC50 [1] [µM] | inhibition at 100 µM [1] [%] | IC50 [2] [µM] | Cytotoxicity effect (µM) T-lymphocyte H9 [3] [µM] | Cytotoxicity effect (µM) Epithelial liver HepG2 [4] [µM] | Cytotoxicity effect (µM) Epithelial kidney NRK52E [6] [µM] | Cytotoxicity CCRF-CEM [7] [µM] | further results
COc1ccc(C(=O)C2=C(O)C(=O)N(CCc3c(C)[nH]c4ccccc34)C2c2ccc(Cl)cc2)cc1 (stereo not drawn) [Compound 6] | 63 ± 4 | 92 ± 7 | 9 ± 6 |  |  |  |  | 
COc1ccc(C2=C(O)C(=O)N(c3nc(SCc4ccccc4)n[nH]3)C2c2ccccc2F)cc1 (stereo not drawn) [Compound 7] | 65 ± 19 | 62 | 58 ± 21 |  |  |  |  | 
COc1ccc(CN2C(=O)/C(=C(/C)O)C(=O)[C@@H]2COC(C)(C)C)c(OC)c1 [Compound 8] | 66 ± 16 |  | 93 ± 18 |  |  |  |  | 
CSc1ccc(C2c3c(oc4cc(C)cc(C)c4c3=O)C(=O)N2CC2CCCO2)cc1 (stereo not drawn) [Compound 9] | 99 ± 1 | 60 | 18 ± 3 |  |  |  |  | 
O=C(C1=C(O)C(=O)N(Cc2c[nH]c3ccccc23)C1c1ccc(Cl)cc1)c1ccc(Br)cc1 (stereo not drawn) [Compound 39] | 24 ± 7 |  | 11 ± 4 | > 100 | > 100 | > 100 | >100 | MIC (E. coli Neumann): > 100 µM; MIC (B. subtilis 168): > 100 µM; MIC [5]: > 100 µM; MIC (µM) A. baumanii ATCC15308 (A. baumannii ATCC15308): > 100 µM; MIC (S. pneumoniae): 25 µM (≈ 13 µg/mL); MIC (S. aureus 133): 25 µM (≈ 13 µg/mL)
C[C@@H]1C[C@@H]([C@H](O)CC2CC(=O)NC(=O)C2)C(=O)[C@@H](C)C1 [Cycloheximide, reference compound] |  |  |  | 0.53 ± 0.3 | 1.34 ± 0.7 | 0.20 ± 0.2 | 0.66 ± 0.5 | 
